row,Structure (SMILES),melting point [°C]
1,CN(Cc1ccccc1)c1ccc(-c2csc(CN(CC(=O)O)C(=O)Cc3csc4ccccc34)n2)cc1 [Example 3-56],186 to 188
2,CC(C)Cc1ccc(CN(C)c2ccc(-c3csc(CN(CC(=O)O)C(=O)Cc4ccc(Cl)cc4)n3)cc2)cc1 [Example 3-57],150 to 152
3,CC(C)CC(=O)N(CC(=O)O)Cc1nc(-c2ccc(N(C)Cc3ccc(CC(C)C)cc3)cc2)cs1 [Example 3-59],117 to 118
4,CN(Cc1ccc(CC(C)(C)C)cc1)c1ccc(-c2csc(CN(CC(=O)O)C(=O)Nc3ccccc3)n2)cc1 [Example 3-60],152 to 153
5,CN(Cc1ccc(C2CCCCC2)cc1)c1ccc(-c2csc(CN3CCCC(C(=O)O)C3)n2)cc1 (stereo not shown) [Example 3-66],176 to 180
6,CC(C)CCC1(C(=O)O)CCN(Cc2nc(-c3ccc(N(C)Cc4ccc(C5CCCCC5)cc4)cc3)cs2)CC1 [Example 3-68],233 to 235
7,CC(C)Cc1ccc(CN(C)c2ccc(-c3csc(CN4Cc5ccccc5CC4C(=O)O)n3)cc2)cc1 (stereo not shown) [Example 3-72],168 to 170
8,CN(Cc1ccc(CC(C)(C)C)cc1)c1ccc(-c2csc(CN3Cc4ccccc4CC3C(=O)O)n2)cc1 (stereo not shown) [Example 3-74],175 to 177
9,CN(Cc1ccc(C2CCCCC2)cc1)c1ccc(-c2csc(N(C)Cc3ccc(C(=O)O)o3)n2)cc1 [Example 3-75],158 to 161
10,CN(Cc1ccc(C2CCCCC2)cc1)c1ccc(-c2csc(CNC(C(=O)O)c3ccccc3)n2)cc1 (stereo not shown) [Example 3-77],183 to 186
11,CC(NCc1nc(-c2ccc(N(C)Cc3ccc(C4CCCCC4)cc3)cc2)cs1)C(=O)O (stereo not shown) [Example 3-78],135 to 138
12,CC(C)Cc1ccc(CN(C)c2ccc(-c3csc(CNC(Cc4ccc(Cl)cc4)C(=O)O)n3)cc2)cc1 (stereo not shown) [Example 3-79],199 to 204
13,CN(CC(=O)O)Cc1nc(-c2ccc(N(C)Cc3ccc(C4CCCCC4)cc3)cc2)cs1 [Example 3-80],152 to 155
14,CN(Cc1ccc(C2CCCCC2)cc1)c1ccc(-c2csc(CN(C)c3ccc(C(=O)O)cn3)n2)cc1 [Example 3-84],226 to 228
15,CC(C)Cc1ccc(CN(C)c2ccc(-c3csc(CN(C)C(Cc4ccccc4)C(=O)O)n3)cc2)cc1 (stereo not shown) [Example 3-85],138 to 139
16,CN(Cc1ccc(CC(C)(C)C)cc1)c1ccc(-c2csc(CN(C)C(C(=O)O)c3ccccc3)n2)cc1 (stereo not shown) [Example 3-88],171 to 173
17,CN(Cc1ccc(CC(C)(C)C)cc1)c1ccc(-c2csc(CN(C)C(Cc3ccccc3)C(=O)O)n2)cc1 (stereo not shown) [Example 3-89],160 to 161
18,CC(C)CCN(CC(=O)O)Cc1nc(-c2ccc(N(C)Cc3ccc(C4CCCCC4)cc3)cc2)cs1 [Example 3-91],153 to 154
19,CC(C)CCN(CC(=O)O)Cc1nc(-c2ccc(N(C)Cc3ccc(CC(C)C)cc3)cc2)cs1 [Example 3-93],155 to 156

row,Structure (SMILES),melting point [°C]
1,CN(Cc1ccc(C2CCCCC2)cc1)c1ccc(-c2csc(CNS(=O)(=O)c3ccc(C(=O)O)cc3)n2)cc1 [Example 3-97],202 to 203
2,CN(Cc1ccc(C2CCC(C)(C)CC2)cc1)c1ccc(-c2csc(CN(C)S(=O)(=O)CC(=O)O)n2)cc1 [Example 3-99],184 to 190
3,CN(Cc1ccc(C2CCCCC2)cc1)c1ccc(-c2csc(CN(C)S(=O)(=O)c3cccc(C(=O)O)c3)n2)cc1 [Example 3-101],164 to 166
4,CN(Cc1ccc(C2CCCCC2)cc1)c1ccc(-c2csc(CN(C)S(=O)(=O)CC(=O)O)n2)cc1 [Example 3-102],178 to 183
5,CC(C)CN(Cc1nc(-c2ccc(N(C)Cc3ccc(C4CCCCC4)cc3)cc2)cs1)S(=O)(=O)CC(=O)O [Example 3-104],104 to 110
6,CN(Cc1nc(-c2ccc(N(C)Cc3ccc(C4CCCCC4)cc3)cc2)cs1)C(=O)c1ccc(C(=O)O)cc1 [Example 3-107],162 to 164
7,CN(Cc1nc(-c2ccc(N(C)Cc3ccc(C4CCCCC4)cc3)cc2)cs1)C(=O)NCC(=O)O [Example 3-109],149 to 150
8,O=C(O)CN(CC1CCCCC1)c1nc(-c2nc3ccc(OCc4ccc(Cl)c(Cl)c4)cc3o2)cs1 [Example 3-110],198 to 200
9,CN(Cc1ccc(C2CCCCC2)cc1)c1ccc(-c2csc(CN3CCN(CC(=O)O)CC3)n2)cc1 [Example 3-111],190 to 191
10,CCCC(CCC)c1ccc(CN2CCCc3cc(-c4csc(CN(CC(=O)O)Cc5nc(C(C)(C)C)cs5)n4)ccc32)cc1 [Example 3-125],132 to 135
11,CCOC(=O)c1ccc(OCc2nc(-c3nc4cc(C(CC)CC)ccc4n3Cc3ccc(C(C)C)cc3)cs2)cc1 [Example 3-128],106 to 107
12,CCC(CC)c1ccc2c(c1)nc(-c1csc(COc3ccc(C(=O)O)cc3)n1)n2Cc1ccc(C(C)C)cc1 [Example 3-129],139 to 142
13,CCC(CC)c1ccc2c(c1)nc(-c1csc(COc3ccc(C(=O)O)cc3)n1)n2Cc1ccc(C(C)=O)cc1 [Example 3-130],127 to 132
14,CCC(CC)c1ccc2nc(-c3csc(COc4ccc(C(=O)O)cc4)n3)n(Cc3ccc(C(C)=O)cc3)c2c1 [Example 3-131],138 to 139
15,CCC(CC)c1ccc2c(c1)nc(-c1csc(COc3ccc(C(=O)O)cc3)n1)n2CC1CCCCC1 [Example 3-132],176 to 183
16,CCC(CC)c1ccc(N(Cc2ccc(-c3csc(COc4cncc(C(=O)O)c4)c3)cc2)C(C)C)cc1 [Example 4-4],160
17,CCC(CC)c1ccc(N(Cc2ccc(-c3ccc(CN(CC(=O)O)Cc4nc(C(C)(C)C)cs4)s3)cc2)C(C)C)cc1 [Example 4-19],92 to 98
18,CCC(CC)c1ccc(N(Cc2ccc(-c3ccc(CN4Cc5ccccc5C[C@H]4C(=O)O)s3)cc2)C(C)C)cc1 [Example 4-28],152

# Now from value to compound:
row,melting point [°C],Structure (SMILES)
1,143 to 145,CC(C)Cc1ccc(CN(C)c2ccc(-c3csc(CN(CC(=O)O)C(=O)c4ccccc4)n3)cc2)cc1 [Example 3-61]
2,114 to 117,CCCC(CCC)c1ccc(CN(C)c2ccc(-c3csc(CN(CC(=O)O)C(=O)c4ccc(C)cc4)n3)cc2)cc1 [Example 3-62]
3,183 to 188,CCCC(CCC)c1ccc(CN(C)c2ccc(-c3csc(CN(CC(=O)[O-])C(=O)c4ccc(C(C)C)cc4)n3)cc2)cc1.[Na+] [Example 3-63]
4,178 to 181,CCCC(CCC)c1ccc(CN(C)c2ccc(-c3csc(COc4cncc(C(=O)O)c4)n3)cc2)cc1 [Example 3-94]
5,175 to 177,CCCC(CCC)c1ccc(CN(C)c2ccc(-c3csc(COc4ccc(C(=O)O)cc4)n3)cc2)cc1 [Example 3-95]
6,126 to 127,CCCC(CCC)c1ccc(CN(C)c2ccc(-c3csc(CSc4ccc(C(=O)O)cc4)n3)cc2)cc1 [Example 3-96]
7,254 to 255,CCCC(CCC)c1ccc(COc2ccc(-c3csc(CN4Cc5ccccc5C[C@H]4C(=O)[O-])n3)cc2)cc1.[Na+] [Example 3-112]
8,148 to 150,CCCC(CCC)c1ccc(COc2ccc(-c3csc(COc4cncc(C(=O)O)c4)n3)c(C)c2)cc1 [Example 3-114]
9,156 to 158,CCCC(CCC)c1ccc(COc2ccc(-c3csc(COc4cncc(C(=O)O)c4)n3)cc2OC)cc1 [Example 3-115]
10,127 to 130,CCCC(CCC)c1ccc(COc2ccc(-c3csc(CN4Cc5ccccc5CC4C(=O)O)n3)cc2)cc1 (stereo not shown) [Example 3-118]
11,103 to 104,CCCC(CCC)c1ccc(COc2ccc(-c3csc(CN(CC(=O)O)Cc4cscn4)n3)c(C)c2)cc1 [Example 3-121]
12,98 to 103,CCCC(CCC)c1ccc(COc2ccc(-c3csc(CN(CC(=O)O)Cc4csc(C)n4)n3)c(C)c2)cc1 [Example 3-122]
13,241 to 243,CCCC(CCC)c1ccc(COc2ccc(-c3csc(CN4CCN(c5ccc(C(=O)O)cc5)CC4)n3)cc2)cc1 [Example 3-127]
14,156,CCCC(CCC)c1ccc(N(Cc2ccc(-c3csc(COc4cncc(C(=O)O)c4)c3)cc2)C(C)C)cc1 [Example 4-3]
15,173 to 175,CCCC(CCC)c1ccc(OCc2ccc(-c3ccc(CN(CC(=O)O)Cc4nc5ccccc5[nH]4)s3)cc2)cc1 [Example 4-8]
16,122 to 124,CCCC(CCC)c1ccc(OCc2ccc(-c3ccc(CN(CC(=O)O)CC(=O)Nc4ccccc4)s3)cc2)cc1 [Example 4-10]
17,166,CCCC(CCC)c1ccc(OCc2ccc(-c3csc(CN(CC(=O)O)Cc4nc(C(C)(C)C)cs4)c3)cc2)cc1 [Example 4-15]
18,155,CCCC(CCC)c1ccc(OCc2ccc(-c3csc(CN(CC(=O)O)CC(=O)Nc4ccccc4)c3)cc2)cc1 [Example 4-16]
19,160 to 164,CCC(CC)c1ccc(N(Cc2ccc(-c3ccc(COc4cncc(C(=O)O)c4)s3)cc2)C(C)C)cc1 [Example 4-17]
20,93 to 98,CCCC(CCC)c1ccc(N(Cc2ccc(-c3ccc(COc4cncc(C(=O)O)c4)s3)cc2)C(C)C)cc1 [Example 4-18]
21,78 to 82,CCCC(CCC)c1ccc(N(Cc2ccc(-c3ccc(CN(CC(=O)O)Cc4nc(C(C)(C)C)cs4)s3)cc2)C(C)C)cc1 [Example 4-20]
22,142 to 146,CCC(CC)c1ccc(N(Cc2ccc(-c3ccc(CN(CC(=O)O)Cc4nc5ccccc5[nH]4)s3)cc2)C(C)C)cc1 [Example 4-21]
23,144 to 150,CCCC(CCC)c1ccc(N(Cc2ccc(-c3ccc(CN(CC(=O)O)Cc4nc5ccccc5[nH]4)s3)cc2)C(C)C)cc1 [Example 4-22]
24,164 to 166,CCCC(CCC)c1ccc(OCc2ccc(-c3csc(CN(CC(=O)O)CC(=O)Nc4ccc(C(C)C)cc4)c3)cc2)cc1 [Example 4-27]
25,120.5,CCCC(CCC)c1ccc(OCc2ccc(-c3csc(CN(CC(=O)O)Cc4ncc(C(C)(C)C)o4)c3)cc2)cc1 [Example 4-29]
26,147 to 150,CCCC(CCC)c1ccc(OCc2ccc(-c3ccc(C(=O)N(CC(=O)O)Cc4ccccn4)s3)cc2)cc1 [Example 4-46]
27,153 to 156,CCCC(CCC)c1ccc(OCc2ccc(-c3ccc(C(=O)N(CC(=O)O)Cc4cccnc4)s3)cc2)cc1 [Example 4-47]

# — US20060122181A1, “Heteroaromatic pentacyclic compound and medicinal use thereof” (Japan Tobacco Inc., priority 2003, published 2006)
